US4731376A, “2-(-(2,2,5,5-tetramethyl-3-pyrrolin-3-carbonyl))-amino derivatives” (Alkaloida Vegyeszeti Gyar, priority 1983, dated 1988)

Legend:
aconitin arrhythmia = aconitin arrhythmia model on rats (time to ventricular extrasystole, tachycardia, fibrillation; ED125, ED150); format: in vivo, Wistar rats; details: for time to chamber extrasystol, aconitin infusion / time to chamber tachycardia, aconitin infusion / time to fibrillation, aconitin infusion: 5 minutes before aconitin infusion, X ± S.E.M.; for ED125 / ED150: Rattus norvegicus, iv, 95% confidence limits on the next line; for ED125: infusion time to extrasystol 7.6 (control 6.1 minutes), read-out: ED125 (delay of chamber extrasystol); for ED150: infusion time to extrasystol 9.2 (control 6.1 minutes), read-out: ED150 (delay of chamber extrasystol)
Procedure: Wistar rats (200-220 g) are narcotized with urethane. The vena jugularis is connected with a polyethylene catheter. Using standard EKG-II leads, a control EKG is taken. The test substance and the physiological saline solution used as control are intravenously administered 5 minutes before the aconitin infusion. The aconitin solution is continuous administered at a dose of 5 mg/kg at a rate of 0.1 ml (100 g/minute) as an infusion into the vena jugularis. The progress is monitored by the EKG isoelectric line.
During the test the time to formation of the ventricular extrasystole, ventricular tachycardia and fibrillation were determined.
On the basis of the late occurrence of the ventricula extrasystole, ED125 and ED150 values were determined.

[1] = acute toxicity on mice (LD50, Litchfield-Wilcoxon, after a week); format: in vivo; details: mouse, in vivo, iv, 95% confidence limits on the next line
Procedure: (§1) On the basis of the late occurrence of the ventricula extrasystole, ED125 and ED150 values were determined. The acute toxicities were determined on mice (CELP strain and the LD50 value was calculated after a week using the Litchfield-Wilcoxon method. The antiarrhythmically effective dosage or the LD50 value for several compounds of the various compound types are collected in Table III.

mice = assay: as above; format: in vivo; details: i.v., 95% confidence limits on the next line, 10080 min
Procedure: as §1

Row | Structure (SMILES) | time to chamber extrasystol, aconitin infusion (aconitin arrhythmia; 0.5 mg/kg i.v.) | time to chamber tachycardia, aconitin infusion (aconitin arrhythmia; 0.5 mg/kg i.v.) | time to fibrillation, aconitin infusion (aconitin arrhythmia; 0.5 mg/kg i.v.) | time to chamber extrasystol, aconitin infusion (aconitin arrhythmia; 1.0 mg/kg i.v.) | time to chamber tachycardia, aconitin infusion (aconitin arrhythmia; 1.0 mg/kg i.v.) | time to fibrillation, aconitin infusion (aconitin arrhythmia; 1.0 mg/kg i.v.) | ED125 (aconitin arrhythmia) | ED150 (aconitin arrhythmia) | LD50 (acute toxicity) (mice) | time to chamber extrasystol, aconitin infusion (aconitin arrhythmia; 2.0 mg/kg i.v.) | time to chamber tachycardia, aconitin infusion (aconitin arrhythmia; 2.0 mg/kg i.v.) | time to fibrillation, aconitin infusion (aconitin arrhythmia; 2.0 mg/kg i.v.) | time to chamber extrasystol, aconitin infusion (aconitin arrhythmia; 4.0 mg/kg i.v.) | time to chamber tachycardia, aconitin infusion (aconitin arrhythmia; 4.0 mg/kg i.v.) | time to fibrillation, aconitin infusion (aconitin arrhythmia; 4.0 mg/kg i.v.) | other results
1 | Cc1cccc(C)c1OCC(C)NC(=O)C1CC(C)(C)NC1(C)C (stereo not shown) [Compound 11, 2-[N-(2,2,5,5-tetramethyl-3-pyrrolidine-3-carbonyl)]-3-(2,6-dimethyl-phenoxy)-amino propane] | 9.9 ± 0.40 min | 15.3 ± 0.52 min | 19.1 ± 0.89 min | 13.2 ± 1.29 min | 19.3 ± 1.24 min | 23.5 ± 0.42 min | 0.26 mg/kg | 0.39 mg/kg |  |  |  |  |  |  |  | time to chamber extrasystol, aconitin infusion (aconitin arrhythmia; 0.25 mg/kg i.v.): 7.6 ± 0.24 min; time to chamber tachycardia, aconitin infusion (aconitin arrhythmia; 0.25 mg/kg i.v.): 11.3 ± 0.88 min; time to fibrillation, aconitin infusion (aconitin arrhythmia; 0.25 mg/kg i.v.): 15.9 ± 0.49 min; LD50 at 168 h [1]: 1.96 mg/kg
2 | CC1(C)C=C(C(=O)NC(c2ccccc2)c2ccccc2)C(C)(C)N1 [Compound 6] |  |  |  |  |  |  | 5.4 mg/kg | 23.1 mg/kg | 63 mg/kg |  |  |  |  |  |  | 
3 | Cc1cccc(C)c1NC(=O)C(C)NC(=O)C1=CC(C)(C)NC1(C)C (stereo not shown) [Compound 20] |  |  |  | 7.1 ± 0.49 min | 12.3 ± 0.42 min | 15.5 ± 0.59 min | 1.21 mg/kg | 1.91 mg/kg | 15 mg/kg | 9.2 ± 0.65 min | 15.1 ± 0.22 min | 19.5 ± 0.54 min | 11.7 ± 0.50 min | 18.4 ± 0.75 min | 23.5 ± 1.63 min | 
4 | Cc1cccc(C)c1NC(=O)CNC(=O)C1=CC(C)(C)NC1(C)C [Compound 19] |  |  |  | 6.6 min | 10.4 ± 2.58 min | 15.1 ± 0.70 min | 1.53 mg/kg | 2.44 mg/kg | 53 mg/kg |  |  |  | 9.8 ± 0.34 min | 16.1 ± 2.62 min | 17.4 ± 1.22 min | time to chamber extrasystol, aconitin infusion (aconitin arrhythmia; 8.0 mg/kg i.v.): 13.8 ± 0.35 min; time to chamber tachycardia, aconitin infusion (aconitin arrhythmia; 8.0 mg/kg i.v.): 27.0 ± 1.10 min; time to fibrillation, aconitin infusion (aconitin arrhythmia; 8.0 mg/kg i.v.): 30.6 ± 1.72 min
5 | C=CC1CN2CCC1CC2C(O)c1ccnc2ccc(OC)cc12 (stereo not shown) [chinidin, reference compound] |  |  |  |  |  |  | 6.75 mg/kg |  |  |  |  |  |  |  |  | time to chamber extrasystol, aconitin infusion (aconitin arrhythmia; 5.0 mg/kg i.v.): 6.9 ± 0.06 min; time to chamber tachycardia, aconitin infusion (aconitin arrhythmia; 5.0 mg/kg i.v.): 10.4 ± 0.45 min; time to fibrillation, aconitin infusion (aconitin arrhythmia; 5.0 mg/kg i.v.): 13.7 ± 0.44 min; time to chamber extrasystol, aconitin infusion (aconitin arrhythmia; 10.0 mg/kg i.v.): 8.4 ± 0.42 min; time to chamber tachycardia, aconitin infusion (aconitin arrhythmia; 20.0 mg/kg i.v.): 15.7 ± 0.48 min; time to fibrillation, aconitin infusion (aconitin arrhythmia; 20.0 mg/kg i.v.): 18.1 ± 0.22 min
6 | Cc1cccc(C)c1OCC(C)NC(=O)C1=CC(C)(C)NC1(C)C (stereo not shown) [Compound 9, 2-[N(2,2,5,5-tetramethyl-2,5-dihydro-3-pyrroline-3-carbonyl)]-3-(2,6-dimethyl-phenoxy)-aminopropane] | 7.2 ± 0.06 min | 11.1 ± 0.68 min | 14.6 ± 0.48 min | 9.2 ± 0.10 min | 15.3 ± 0.29 min | 20.9 ± 0.50 min | 0.6 mg/kg | 0.9 mg/kg | 11 mg/kg | 13.2 ± 1.21 min | 18.9 ± 0.13 min | 24.6 ± 0.79 min |  |  |  | 
